Data taken from patent publication US11535630B2, “Apelin receptor (APJ) agonists and uses thereof” (Research Triangle Institute, priority 2015, dated 2022).

Each molecule was assayed against T1, apelin receptor (APJ) (Homo sapiens, UniProt P35414) (assay: In vitro apelin agonist activity (methods of Giddings et al., Apelin-13 as positive control)). Details: in vitro apelin agonist activity, methods of Giddings et al., Apelin-13 as positive control; read-out: EC50 (nM) Ave.
T1 sequence (P35414 1-380): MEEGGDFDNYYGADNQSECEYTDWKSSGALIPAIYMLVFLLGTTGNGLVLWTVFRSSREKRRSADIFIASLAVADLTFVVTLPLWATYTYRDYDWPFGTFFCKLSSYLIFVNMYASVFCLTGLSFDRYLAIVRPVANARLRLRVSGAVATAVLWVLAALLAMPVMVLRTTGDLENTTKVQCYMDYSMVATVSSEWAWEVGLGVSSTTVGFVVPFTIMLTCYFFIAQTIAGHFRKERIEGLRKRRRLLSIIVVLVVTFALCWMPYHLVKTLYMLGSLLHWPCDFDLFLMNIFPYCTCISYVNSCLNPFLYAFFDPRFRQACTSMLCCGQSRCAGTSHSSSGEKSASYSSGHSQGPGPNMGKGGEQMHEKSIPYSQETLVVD
Format: cell-based
Description: Characterization of the Apelin Agonist Activity of the Compounds
1:39-47, the contents of which are hereby incorporated by reference in its entirety. Using the methods described in Giddings et al. and Apelin-13 as a positive control.

| SMILES | EC50 [nM] |
| --- | --- |
| Cc1noc(C)c1-c1cc(C(=O)N[C@@H](CCN2CCCCC2)CC(=O)NC2CCC2)nn1C1CCCC1 [compound 369, (3S)-N-cyclobu tyl-3-{[1-cyclopentyl-5-(dimethyl-1,2-oxazol-4-yl)-1H-pyrazol-3-yl]formamido}-5-(piperidin-1-yl)pentanamide] | > 10000 |
| O=C(O)C[C@H](CCN1CCCC(F)(F)C1)NC(=O)c1cc(-c2cnccc2Cl)n(C2CCCC2)n1 [compound 467, (3S)-3-{[5-(4-chloropyridin-3-yl)-1-cyclopentyl-1H-pyrazol-3-yl]formamido}-5-(3,3-difluoropiperidin-1-yl)pentanoic acid] | > 10000 |
| COc1cccc(OC)c1-c1cc(C(=O)N[C@@H](CC2CCC2)C(=O)NC2CCC2)nn1C1CCCC1 [compound 377, (2S)-N,3-dicyclobutyl-2-{[1-cyclopentyl-5-(2,6-dimethoxyphenyl)-1H-pyrazol-3-yl]formamido}propanamide] | > 10000 |
| COc1cccc(OC)c1-c1cc(C(=O)N[C@@H](CCc2ccccc2)CC(=O)NCc2nccs2)nn1C1CCCC1 [compound 382, (3S)-3-{[1-cyclopentyl-5-(2,6-dimethoxyphenyl)-1H-pyrazol-3-yl]formamido}-5-phenyl-N-(1,3-thiazol-2-ylmethyl)pentanamide] | 3440 |
| COc1cccc(OC)c1-c1cc(C(=O)N[C@@H](CCc2ccccc2)C(=O)NCc2nnn[nH]2)nn1C1CCCC1 [compound 387, (2S)-2-{[1-cyclopentyl-5-(2,6-dimethoxyphenyl)-1H-pyrazol-3-yl]formamido}-4-phenyl-N-(1H-1,2,3,4-tetrazol-5-ylmethyl)butanamide] | 8720 |
| COc1cccc(OC)c1-c1cc(C(=O)N[C@@H](/C=C/c2ccncc2)CC(=O)NC2CCC2)nn1C1CCCC1 [compound 419, (3R,4E)-N-cyclobutyl-3-{[1-cyclopentyl-5-(2,6-dimethoxyphenyl)-1H-pyrazol-3-yl]formamido}-5-(pyridin-4-yl)pent-4-enamide] | > 10000 |

Now those with a lower EC50, led by results:

| EC50 [nM] | SMILES |
| --- | --- |
| 203 | COc1cccc(OC)c1-c1cc(C(=O)N[C@H](CC(=O)Nc2nccs2)Cc2ccccc2)nn1C1CCCC1 [compound 402, (3S)-3-{[1-cyclopentyl-5-(2,6-dimethoxyphenyl)-1H-pyrazol-3-yl]formamido}-4-phenyl-N-(1,3-thiazol-2-yl)butanamide] |
| 31 | COc1cccc(OC)c1-c1cc(C(=O)N[C@@H](CCN2CCCCC2)CC(=O)Nc2ncco2)nn1C1CCCC1 [compound 339, (3S)-3-{[1-cyclopentyl-5-(2,6-dimethoxyphenyl)-1H-pyrazol-3-yl]formamido}-N-(1,3-oxazol-2-yl)-5-(piperidin-1-yl)pentanamide] |
| 290 | C#Cc1ccccc1-c1cc(C(=O)N[C@@H](CCN2CCCCC2)CC(=O)NC2CCC2)nn1C1CCCC1 [compound 438, (3S)-N-cyclobutyl-3-{[1-cyclopentyl-5-(2-ethynylphenyl)-1H-pyrazol-3-yl]formamido}-5-(piperidin-1-yl)pentanamide] |
| 2530 | COc1cccc(OC)c1-c1cc(C(=O)N[C@@H](CCN2CCCCC2)CC(=O)NC(C)(C)C)nn1C1CCCC1 [compound 333, (3S)-N-tert-butyl-3-{[1-cyclopentyl-5-(2,6-dimethoxyphenyl)-1H-pyrazol-3-yl]formamido}-5-(piperidin-1-yl)pentanamide] |
| 388 | O=C(O)C[C@H](CCN1CC(F)(F)C1)NC(=O)c1cc(-c2ccccc2C(F)(F)F)n(C2CCCC2)n1 [compound 534, (3S)-3-({1-cyclopentyl-5-[2-(trifluoromethyl)phenyl]-1H-pyrazol-3-yl}formamido)-5-(3,3-difluoroazetidin-1-yl)pentanoic acid] |
| 100 | O=C(C[C@H](CCN1CC2CCC1CC2)NC(=O)c1cc(-c2ccccc2C(F)(F)F)n(C2CCCC2)n1)NC1CCC1 [compound 521] |
| 114 | O=C(C[C@H](COc1ccc(F)cc1)NC(=O)c1cc(-c2ccccc2C(F)(F)F)n(C2CCCC2)n1)NC1CCC1 [compound 546, (3R)-N-cyclobutyl-3-({1-cyclopentyl-5-[2-(trifluoromethyl)phenyl]-1H-pyrazol-3-yl}formamido)-4-(4-fluorophenoxy)butanamide] |
